pKi: −log10 of the molar value.
Molecular target: Tyrosine-protein kinase ABL1 (Homo sapiens, UniProt P00519)
Sequence (P00519 whole entry): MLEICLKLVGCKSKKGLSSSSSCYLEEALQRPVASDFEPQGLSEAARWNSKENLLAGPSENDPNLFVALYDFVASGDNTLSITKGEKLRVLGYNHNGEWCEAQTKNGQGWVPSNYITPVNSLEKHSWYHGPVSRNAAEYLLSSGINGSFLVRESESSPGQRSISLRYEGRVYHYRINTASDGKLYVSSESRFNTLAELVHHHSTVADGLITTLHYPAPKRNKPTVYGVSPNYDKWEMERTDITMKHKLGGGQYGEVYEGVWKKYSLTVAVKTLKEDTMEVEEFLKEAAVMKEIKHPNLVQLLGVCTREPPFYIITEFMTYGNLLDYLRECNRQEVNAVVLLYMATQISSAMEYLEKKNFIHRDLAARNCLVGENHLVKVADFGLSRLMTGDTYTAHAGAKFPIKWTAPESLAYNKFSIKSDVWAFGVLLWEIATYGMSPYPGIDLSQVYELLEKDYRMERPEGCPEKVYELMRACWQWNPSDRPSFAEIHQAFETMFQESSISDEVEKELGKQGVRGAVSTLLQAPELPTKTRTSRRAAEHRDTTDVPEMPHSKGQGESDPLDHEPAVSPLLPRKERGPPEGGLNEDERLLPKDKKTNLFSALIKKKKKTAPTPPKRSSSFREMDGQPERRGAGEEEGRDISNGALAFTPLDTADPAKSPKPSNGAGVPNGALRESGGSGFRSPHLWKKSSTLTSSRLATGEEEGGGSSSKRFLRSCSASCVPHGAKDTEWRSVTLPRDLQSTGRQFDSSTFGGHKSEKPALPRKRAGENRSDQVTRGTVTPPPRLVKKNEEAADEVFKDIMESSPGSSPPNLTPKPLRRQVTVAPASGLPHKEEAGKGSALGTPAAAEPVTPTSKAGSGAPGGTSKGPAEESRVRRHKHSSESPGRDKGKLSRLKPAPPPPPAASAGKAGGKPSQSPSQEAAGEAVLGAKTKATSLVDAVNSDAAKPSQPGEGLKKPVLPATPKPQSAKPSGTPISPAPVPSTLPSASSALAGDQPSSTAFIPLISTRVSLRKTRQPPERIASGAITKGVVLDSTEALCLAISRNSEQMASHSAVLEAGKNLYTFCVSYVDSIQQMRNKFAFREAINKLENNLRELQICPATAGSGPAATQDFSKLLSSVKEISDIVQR
Description: Inhibition of recombinant c-Abl after 30 mins

pKi	Compound
7.40	Cn1c(=O)c(-c2ccccc2Br)cc2cnc(NCc3cccc(N)c3)nc21
7.15	CSc1cccc(CNc2ncc3cc(-c4c(Cl)cccc4Cl)c(=O)n(C)c3n2)c1
10.70	Cn1c(=O)c(-c2c(Cl)cccc2Cl)cc2cnc(Nc3cccc(NC(=O)CN)c3)nc21
8.10	Cn1c(=O)c(-c2c(Cl)cccc2Cl)cc2cnc(NCc3cccc(N)c3)nc21
5.70	Cn1c(=O)c(-c2ccccc2)cc2cnc(NCc3cccc(N)c3)nc21
7.70	Cn1c(=O)c(-c2c(Cl)cccc2Cl)cc2cnc(NCc3cccc(C(=O)CCCC[C@@H]4SC[C@@H]5NC(=O)N[C@@H]54)c3)nc21
7.70	Cn1c(=O)c(-c2c(Cl)cccc2Cl)cc2cnc(NCc3cccc(NC(=O)CN)c3)nc21
6.05	CCCCCCNc1cccc(CNc2ncc3cc(-c4c(Cl)cccc4Cl)c(=O)n(C)c3n2)c1
7.22	Cn1c(=O)c(-c2ccccc2Cl)cc2cnc(NCc3cccc(N)c3)nc21
7.40	Cn1c(=O)c(-c2c(F)cccc2F)cc2cnc(NCc3cccc(N)c3)nc21
